Laboratory results taken from article PMC4291223, “Inhibitors of CLK Protein Kinases Suppress Cell Growth and Induce Apoptosis by Modulating Pre-mRNA Splicing” (PLoS ONE, 2015).

What was measured:
HCT-116 cells = test: Cell viability assay, HCT-116; format: cell-based; conditions: Homo sapiens; HCT-116 colorectal cancer
NCI-H23 cells = test: Cell viability assay, NCI-H23; format: cell-based; conditions: Homo sapiens; NCI-H23 non-small cell lung cancer
[1] = test system: nuclear speckles in MDA-MB-468 cells; test: Immunofluorescence of nuclear speckles (anti-SC35); format: cell-based, human; conditions: MDA-MB-468, 6 h, anti-SC35 antibody
Protocol: MDA-MB-468 cells were fixed with 4% paraformaldehyde for 30 min at room temperature, washed with PBS, blocked with 5% BSA in PBS, incubated with an anti-SC35 antibody (Abcam, Cambridge, UK) for 1 h at room temperature, and incubated with a secondary antibody for 1 h. The cells were mounted and counterstained with DAPI (Vector Laboratories, Burlingame, CA) and detected using fluorescence microscopy.

A549 cells = test: Cell viability assay, A549; format: cell-based; conditions: Homo sapiens; A549 non-small cell lung cancer
SW620 cells = test: Cell viability assay, SW620; format: cell-based; conditions: Homo sapiens, SW-620; SW620 colorectal cancer
[2] = test system: S6K pre-mRNA splicing in COLO320DM cells; test: S6K pre-mRNA splicing alteration (quantitative RT-PCR), COLO320DM; format: cell-based, human; conditions: ratio of S6K exons 6–8 to exons 6–7 is 0.1
Source text: (§1) To examine whether inhibition of a particular CLK and/or SRPK contributed to the alternative splicing of S6K pre-mRNA, we used an additional series of compounds with the same scaffold as Cpd-1, Cpd-2, and Cpd-3, but different selectivity. First, we examined the correlation between the enzymatic activity and the level of splicing alterations of S6K pre-mRNA for the individual compounds. We used the exon 7-skipped type of S6K variant to calibrate Rc0.1 values, i.e., the concentrations that induced 10% of the copy number of an alternative isoform compared with that of the canonical isoform. The inhibition of CLK1 and CLK2 activities was correlated with the splicing alteration activities (Rc0.1) (R^2 = 0.3353 and 0.4255, respectively). In contrast, there was no correlation between the activities of SRPKs and the Rc0.1 values (R^2 < 0.0468) (Fig. 3A). Next, we compared the levels of splicing alteration and growth inhibition of the compounds. […] Similar correlations between Rc0.1 and GI50 values were also obtained in seven different cancer cell lines after treatment with Cpd-2 or Cpd-3 (Table 2).
(§2) Total RNA was extracted using an RNeasy Miniprep Kit (Qiagen, Valencia, CA) in accordance with the manufacturer’s instructions. Reverse transcription was performed using a TaqMan Reverse Transcription Reagents Kit (Applied Biosystems, Carlsbad, CA). The PCR conditions were as follows: one cycle of 5 min at 95°C; 35 cycles of 30 s at 94°C, 30 s at 60°C, and 30 s at 72°C; and one cycle of 10 min at 72°C. The PCR products were separated in 2% agarose gels. Real-time PCR was performed using a TaqMan MGB probe (Applied Biosystems), and the amount of FAM fluorescence was measured as a function of the PCR cycle number (CT) using an ABI 7900 Real-time PCR System (Applied Biosystems). The expression level of each mRNA was normalized by that of GAPDH mRNA.

[3] = test system: S6K pre-mRNA splicing in NCI-H23 cells; test: S6K pre-mRNA splicing alteration (quantitative RT-PCR), NCI-H23; format: cell-based, human; conditions: ratio of S6K exons 6–8 to exons 6–7 is 0.1
Source text: as §1, §2

COLO320DM cells = test: Cell viability assay, COLO320DM; format: cell-based; conditions: Homo sapiens, COLO 320DM; COLO320DM colorectal cancer
[4] = test system: S6K pre-mRNA splicing in A549 cells; test: S6K pre-mRNA splicing alteration (quantitative RT-PCR), A549; format: cell-based, human; conditions: ratio of S6K exons 6–8 to exons 6–7 is 0.1
Source text: as §1, §2

MDA-MB-468 cells = test: Cell viability assay (CellTiter-Glo), MDA-MB-468; format: cell-based; conditions: Homo sapiens; MDA-MB-468 breast cancer, 72 h
Protocol: MDA-MB-468 cells (5 × 10^3) were seeded into 96-well plates and incubated overnight in 50 μL of culture medium. Next, 50 µL of each compound diluted in culture medium was added to the wells. After 72 h of incubation, viability was determined using the CellTiter-Glo Luminescent Cell Viability Assay (Promega) according to the manufacturer’s instructions. The GI50 values were calculated using GraphPad Prism 5 software with a sigmoid dose-response curve.

CLK2 = target: T1, CLK2 (Homo sapiens, UniProt P49760); test: In vitro kinase assay (LANCE Ultra), CLK2; format: biochemical; conditions: for IC50: 20 µM ATP; for activity for CLK2 relative to Cpd-1: stronger than Cpd-1
T1 construct: purchased Life Technologies
Protocol: The ATP concentration for each assay was adjusted to the Km for each kinase. Kinase assays for SRPK1–3 and CLK1 were performed using the ADP-Glo™ assay (Promega, Madison, WI). The kinase buffer contained 25 mM HEPES (pH 7.5), 10 mM magnesium acetate, 1 mM DTT, 0.01% BSA, and 0.01% Tween-20. The reaction mixtures contained 50 ng/mL SRPK1, 100 ng/mL SRPK2 or SRPK3, or 300 ng/mL CLK1 and 3 μM substrate peptide [GRSRSRSRSRSRSRSR] (Thermo Scientific). After incubating the enzyme, peptide, and compounds for 10 min, kinase reactions were initiated by adding ATP to a final concentration of 5 µM, followed by incubation for 30 min (15 min for SRPK1). The kinase reactions were terminated by adding ADP-Glo™ reagent (Promega). ADP was detected using a kinase detection reagent (Promega). The kinase activity of CLK2 was measured using the LANCE® Ultra assay (Perkin-Elmer, Waltham, MA) with ADP-Glo assay buffer. The reaction mixtures contained 100 ng/mL CLK2 and 50 nM ULight™-myelin basic protein (MBP) peptide (Perkin-Elmer). After incubating the enzyme, peptide, and compounds for 5 min, kinase reactions were initiated by adding ATP to a final concentration of 20 μM, followed by incubation for 30 min. The enzyme reactions were terminated by adding 30 mM EDTA, and phosphorylated ULight-MBP peptides were detected using a europium-labeled anti-phospho-MBP antibody diluted with detection buffer (Perkin-Elmer). The plates were read using an EnVision 2102 multilabel reader (Perkin-Elmer). We defined the absorbance of the reaction without enzyme as 100% inhibitory activity and that of the complete reaction mixture as 0% inhibitory activity. The IC50 values were estimated using the “Sigmoidal dose-response (variable slope)” equation in GraphPad Prism 5 software (GraphPad Software, San Diego, CA), with the maximum and minimum of the curve constrained to 100 and 0, respectively.

T1 sequence (P49760 whole entry): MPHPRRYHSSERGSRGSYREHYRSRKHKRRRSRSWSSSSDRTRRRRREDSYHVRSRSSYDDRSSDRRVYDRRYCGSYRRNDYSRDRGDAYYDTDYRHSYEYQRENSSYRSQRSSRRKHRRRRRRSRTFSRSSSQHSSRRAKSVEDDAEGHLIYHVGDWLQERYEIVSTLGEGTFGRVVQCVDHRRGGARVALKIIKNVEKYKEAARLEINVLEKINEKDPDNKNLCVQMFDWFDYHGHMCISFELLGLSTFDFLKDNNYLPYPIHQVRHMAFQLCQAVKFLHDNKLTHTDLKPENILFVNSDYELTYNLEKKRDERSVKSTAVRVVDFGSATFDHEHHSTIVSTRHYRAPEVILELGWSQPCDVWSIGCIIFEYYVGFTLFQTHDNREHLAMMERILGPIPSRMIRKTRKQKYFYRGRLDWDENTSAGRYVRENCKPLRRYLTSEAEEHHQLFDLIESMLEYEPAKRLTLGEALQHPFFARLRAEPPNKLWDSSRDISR

GI50 (HCT-116 cells) [nM] | GI50 (NCI-H23 cells) [nM] | GI50 (A549 cells) [nM] | GI50 (SW620 cells) [nM] | GI50 (COLO320DM cells) [nM] | GI50 (MDA-MB-468 cells) [nM] | IC50 (CLK2) [nM] | activity for CLK2 relative to Cpd-1 (CLK2) [fold] | SMILES | effect on nuclear speckles [1] | Rc0.1 [2] [µM] | Rc0.1 [3] [µM] | Rc0.1 [4] [µM]
70200 | 32000 | 102000 | 41800 | 43000 | 30500 | 45 | – | CC(C)(CCc1nnn[nH]1)c1ccc(C(=O)Nc2cn3cc(C(F)(F)F)ccc3n2)cc1 [Cpd-1, 4-(2-methyl-4-(1H-tetrazol-5-yl)butan-2-yl)-N-(6-(trifluoromethyl)imidazo[1,2-a]pyridin-2-yl)benzamide] | induced enlargement of nuclear speckles | >10 | >10 | >10
2200 | 1400 | 1900 | 2000 | 600 | 3000 | 2.4 | 10 | CC(C)(C)c1ccc(C(=O)Nc2cn3cc(-c4cn[nH]c4)ccc3n2)cn1 [Cpd-2, 6-tert-butyl-N-(6-(1H-pyrazol-4-yl)imidazo[1,2-a]pyridin-2-yl)nicotinamide] | induced enlargement of nuclear speckles | 0.9 | 0.9 | 0.3
2500 | 2200 | 2600 | 2900 | 1500 | 3400 | 2.1 | 10 | CC(C)(CO)c1ccc(C(=O)Nc2cn3cc(-c4cn[nH]c4)ccc3n2)cc1 [Cpd-3, 4-(1-hydroxy-2-methylpropan-2-yl)-N-(6-(1H-pyrazol-4-yl)imidazo[1,2-a]pyridin-2-yl)benzamide] | induced enlargement of nuclear speckles | 1.1 | 1.1 | 1.2
